For assay [1], the system named is bloodstream-form T. b. brucei TbAK RNAi cells. Description: Drug sensitivity test (Alamar blue) on TbAK RNAi knock-down mutant. The format is cell-based. As to conditions: Trypanosoma brucei. Here is the method:
The construction of the T. b. brucei adenosine kinase gene knock-down mutant has been described recently. Expression of a stem-loop construct targeting TbAK was induced by addition of 10 µg/ml tetracycline to the medium. Down-regulation of TbAK expression was verified by Northern blotting. Parasites were cultivated and drug sensitivity was tested using the Alamar blue test. IC50 values were calculated by nonlinear fitting to the sigmoidal dose-response curve using Origin® software. The assays were performed in triplicates for at least four times.
A general note: The colour change of resazurin is a common sign of viable cells or microbes.

The target of assay [2] is T1, adenosine kinase of T. b. rhodesiense (TbrAK) (Trypanosoma brucei rhodesiense, UniProt Q584S0).
T1 sequence (Q584S0 1-345): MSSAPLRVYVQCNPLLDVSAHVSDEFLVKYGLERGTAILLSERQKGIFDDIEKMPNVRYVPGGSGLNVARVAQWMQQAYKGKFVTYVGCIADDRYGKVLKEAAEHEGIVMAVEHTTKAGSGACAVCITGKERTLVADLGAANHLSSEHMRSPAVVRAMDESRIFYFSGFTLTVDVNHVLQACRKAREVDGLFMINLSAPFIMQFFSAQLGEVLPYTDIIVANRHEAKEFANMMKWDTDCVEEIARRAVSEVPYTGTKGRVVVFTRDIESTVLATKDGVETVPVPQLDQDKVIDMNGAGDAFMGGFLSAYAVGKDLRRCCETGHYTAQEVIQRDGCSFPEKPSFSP
Description: Isothermal titration calorimetry (ITC) with TbrAK. The format is binding. The settings on record: for Kd: two-sites non-interacting binding model. Here is the method: Isothermal titration calorimetry (ITC) was employed to elucidate the binding affinity of compound 1 toward TbrAK. All solutions were degassed for 5 min with gentle stirring under vacuum. TbrAK was dialyzed into buffer E2 (20 mM Tris, 150 mM NaCl, pH 7.5, 5% glycerol), diluted to 7 µM and supplemented with 1% DMSO, filtered and filled into the sample cell. The ligand solution was prepared by diluting a stock solution of compound 1 or 5 in DMSO with buffer E2 to give a final concentration of 150 µM and 1% DMSO. The final ligand solution was filtered before use. A titration experiment consisted of a first control injection of 1 µl followed by 27 injections, each of 10 µl and 20 s duration, with a 4-min interval in between. Raw data were collected, corrected for ligand heats of dilution, integrated and fit to the two-set non-interacting binding sites model using the Origin® software supplied with the instrument. The measurements were performed at least in duplicate.

Assay [3] addresses T1, adenosine kinase of T. b. rhodesiense (TbrAK). The assay can be described thus: Radiometric assay for EC50 determination (TbrAK hyperactivation). The format is biochemical. As to conditions: 12 µM [2-3H]adenosine, 167 µM ATP, 0.88 nM TbrAK, 37°C. Here is the method:
Radiometric assay for EC50 determination
The EC50 for hyperactivation of TbrAK by compound 1 was obtained by monitoring the conversion of [2-3H]adenosine to [2-3H]AMP. Reactions were executed at 37°C in a final volume of 30 µl containing 20 mM Hepes, 50 mM NaCl, 167 µM ATP, 167 µM MgCl2, 0.33 % BSA, and 1.0 % DMSO. The concentration of [2-3H]adenosine was kept constant at 12 µM while compound 1 was varied in the range of 0-100 µM. The reaction was started by the addition of 1 ng (0.88 nM) TbrAK. The reactions were incubated and 5 µl aliquots were spotted on 5 mm diameter DE81-cellulose disks placed in a 96-well plate to stop the reaction. The disks were washed 3 times with 250 µl 5 mM ammonium formate, once with H2O, transferred to scintillation vials, and then soaked with 2 ml of the displacement solution (100 mM HCl, 200 mM KCl) and gently shaken for 1 minute to elute the phosphorylated product. After adding 10 ml scintillation liquid, the samples were counted. For comparative reasons the activity recorded in absence of compound was set to 100 %. The mean of four independent measurements is reported.

The target is the same in assay [4]. Description: Thermal stability assay (CD spectroscopy) regarding TbrAK. Format: binding. Here is the method:
Thermal unfolding of TbrGAPDH and TbrAK was studied by circular dichroism (CD) spectroscopy at 220 nm within the temperature range of 20–90°C using a heating rate of 40°C/h.
TbrAK in buffer E1 (20 mM Hepes, 150 mM NaCl, pH 7.0) was used at 0.5 mg/ml (final concentration 13 µM). All measurements were done in a 0.5 mm cell and contained 0.1 % DMSO and 2.5 mM EDTA to prevent enzyme activity. Thermal stability was analyzed in presence of 500 µM substrate to record the maximum stability limit, whereas compounds 1 to 5 were used at a concentration of 50 µM, being the highest concentration achievable for compound 2, to allow comparison of all compounds at the same concentration. For evaluation of the CD spectra, the buffer spectrum was subtracted from the protein CD spectrum. All thermal unfolding curves were fitted to a two-state model that had been published recently. The mean of three independent experiments are reported. […]

Assay [5] has the same target. Description: Radiometric assay for kinetic study of TbrAK. As to conditions: in presence of compound 1 (33.4 µM), 167 µM ATP.
Description: Kinetic constants for adenosine phosphorylation by TbrAK were obtained by monitoring the conversion of [2-^3H]adenosine to [2-^3H]AMP. Reactions were executed at 37°C in a final volume of 30 µl containing 20 mM Hepes (pH 7.0), 50 mM NaCl, 167 µM ATP, 167 µM MgCl2, 0.34% BSA, and 0.34% DMSO. […] The concentration of [2-^3H]adenosine (0.1–12 µM) was chosen in consideration of Michaelis–Menten conditions for initial velocity measurements. The reaction was started by the addition of 1 ng (0.88 nM) TbrAK. The reactions were incubated and 5 µl aliquots were spotted on 5 mm diameter DE81-cellulose disks placed in a 96-well plate to stop the reaction. The disks were washed 3 times with 250 µl 5 mM ammonium formate, once with H2O, transferred to scintillation vials, and then soaked with 2 ml of a displacement solution (100 mM HCl, 200 mM KCl) and gently shaken for 1 minute to elute the phosphorylated products [9]. After adding 10 ml scintillation liquid, the samples were counted in scintillation counter. Km and Vmax with respect to adenosine and Ki for adenosine substrate-inhibition in absence and presence of compound 1 were determined by non-linear fit of the data to the substrate-inhibition model described elsewhere [10].
A further assay deals with T. b. rhodesiense. On the set-up: method as in PMID 17949068. As to conditions: in vitro, blood stage parasite; read-out: IC50 against blood stage T.b. rhodesiense; cited from earlier work.

The structures appear in SMILES notation. Like-named read-outs stand apart in the source and are kept apart here.

For the compound `c1ccc(Oc2ccc(-c3cc(N4CCOCC4)[nH]n3)cc2)cc1` [compound 1, 4-[5-(4-phenoxyphenyl)-2H-pyrazol-3-yl]morpholine], in assay [1] (read-out: IC50 on TbAK RNAi cells, induced), the IC50 – broadly, the concentration at which inhibition is half-maximal – came to 271 ± 25 nM. Besides, in assay [1] (read-out: IC50 on TbAK RNAi cells, non-induced), the IC50 was 131 ± 43 nM. In assay [2], the “molecules of compound bound per molecule of enzyme” value is on record as “two”; the “ΔHbind, high affinity binding site” value is -3.05 ± 0.77 kcal/mol; the “ΔHbind, low affinity binding site” value is -1.13 ± 0.24 kcal/mol. Besides, the Kd – broadly, a measure of binding affinity in units of concentration – in assay [2] (read-out: KD, high affinity binding site) was 75 ± 20 nM. The Kd in assay [2] (read-out: KD, low affinity binding site) worked out at 497 ± 34 nM. Also, in assay [3], the EC50 – broadly, the concentration at which the effect is half-maximal – was 38 ± 12 nM. Besides, in assay [4] (compound at 50 µM, 13 µM TbrAK), the “Tm of TbrAK” value is 47.9±0.1 °C. In assay [4] (read-out: ΔTm of TbrAK), the ΔTm (usually the shift of the melting midpoint relative to a reference) at 50 µM is 4.8 °C. Moreover, in assay [5], the “Ki adenosine (substrate-inhibition)” value was found to be 78400 ± 2200 nM; the Vmax (commonly the rate approached at saturating substrate) was determined as 14.20 ± 0.14 nM/min; the kcat (in general, the maximal rate divided by the concentration of active sites) was found to be 0.27 ± 0.01 s⁻¹. Besides, in the assay with T. b. rhodesiense, the IC50 was 1000 nM.
